Laboratory results published in PMC10578354 (Journal of Medicinal Chemistry, 2023).

System: T24 and 5637 bladder cancer cell lines and healthy bladder epithelial cells (BdECs)
Test: MTT proliferation assay
Format: cell-based
Settings: T24 and 5637 vs BdEC, 72 h treatment, Figure 6B

Compound: CN(C)CCOc1cccc(NC(=O)Cc2c[nH]c3cc(F)ccc23)c1 [NMX-10095, N-(3-(2-(Dimethylamino)ethoxy)phenyl)-2-(6-fluoro-1H-indol-3-yl)acetamide]
- inhibition of cell proliferation, cancer vs healthy cells: differential inhibition of cell proliferation
